Results: ChEMBL document CHEMBL3431459, “Roche carnitine palmitoyltransferase modulator screening data (supplementary data associated with the publication CHEMBL2216752)”
pIC50: −log10 of the molar value. ≈ marks a conversion by molar mass, not a printed value.

Legend:
[1] = SUPPLEMENTARY: Lipophilicity (log D) Determination by high-throughput shake-flask; format: physicochemical; details: octanol/water
[2] = target: T1, Carnitine O-palmitoyltransferase 2, mitochondrial (Rattus norvegicus, UniProt P18886); assay: (§1) SUPPLEMENTARY: Inhibition of Carnitine palmitoyltransferase 2
T1 sequence (P18886 whole entry): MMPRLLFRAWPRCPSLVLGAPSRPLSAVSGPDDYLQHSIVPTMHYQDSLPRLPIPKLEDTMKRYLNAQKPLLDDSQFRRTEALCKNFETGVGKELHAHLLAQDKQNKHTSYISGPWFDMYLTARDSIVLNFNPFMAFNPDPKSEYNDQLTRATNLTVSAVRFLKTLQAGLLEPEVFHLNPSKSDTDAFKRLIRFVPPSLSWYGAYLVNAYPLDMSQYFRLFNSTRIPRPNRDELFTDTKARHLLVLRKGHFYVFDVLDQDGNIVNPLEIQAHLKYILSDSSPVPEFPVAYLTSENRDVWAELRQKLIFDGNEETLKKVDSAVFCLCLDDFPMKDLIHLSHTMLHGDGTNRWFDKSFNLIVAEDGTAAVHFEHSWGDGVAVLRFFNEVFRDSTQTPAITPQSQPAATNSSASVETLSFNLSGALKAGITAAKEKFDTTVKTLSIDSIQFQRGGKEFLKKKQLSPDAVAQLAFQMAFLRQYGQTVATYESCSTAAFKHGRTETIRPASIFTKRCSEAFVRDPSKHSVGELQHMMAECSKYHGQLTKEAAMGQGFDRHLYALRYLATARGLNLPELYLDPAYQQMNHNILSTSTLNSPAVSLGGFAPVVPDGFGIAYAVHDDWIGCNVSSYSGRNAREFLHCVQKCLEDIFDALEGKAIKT

[3] = target: T2, Carnitine O-palmitoyltransferase 2, mitochondrial (Homo sapiens, UniProt P23786); assay: as §1
T2 sequence (P23786 whole entry): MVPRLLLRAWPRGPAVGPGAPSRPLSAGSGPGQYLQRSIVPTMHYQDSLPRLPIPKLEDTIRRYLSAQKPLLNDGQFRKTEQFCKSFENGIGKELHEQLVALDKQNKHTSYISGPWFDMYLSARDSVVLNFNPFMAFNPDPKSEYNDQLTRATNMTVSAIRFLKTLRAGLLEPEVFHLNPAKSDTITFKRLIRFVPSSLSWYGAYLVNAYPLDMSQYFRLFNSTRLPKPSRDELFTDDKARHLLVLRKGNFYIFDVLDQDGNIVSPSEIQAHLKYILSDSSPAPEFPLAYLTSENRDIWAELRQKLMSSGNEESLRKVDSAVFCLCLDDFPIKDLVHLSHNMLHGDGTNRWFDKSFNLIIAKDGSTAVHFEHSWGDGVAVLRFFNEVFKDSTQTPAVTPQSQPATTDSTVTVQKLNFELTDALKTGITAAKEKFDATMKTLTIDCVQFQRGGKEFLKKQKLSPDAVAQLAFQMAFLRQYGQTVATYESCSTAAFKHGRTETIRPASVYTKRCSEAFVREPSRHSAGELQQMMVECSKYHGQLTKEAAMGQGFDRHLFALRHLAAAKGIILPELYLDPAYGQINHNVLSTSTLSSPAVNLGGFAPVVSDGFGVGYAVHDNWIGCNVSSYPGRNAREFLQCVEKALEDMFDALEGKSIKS

[4] = SUPPLEMENTARY: Lyophilisation Solubility Assay (LYSA); format: physicochemical; details: read-out: Kinetic_solubility
[5] = target: T3, Carnitine O-palmitoyltransferase 1, liver isoform (Rattus norvegicus, UniProt P32198); assay: (§2) SUPPLEMENTARY: Inhibition of Carnitine palmitoyltransferase 1, liver isoform
T3 sequence (P32198 whole entry): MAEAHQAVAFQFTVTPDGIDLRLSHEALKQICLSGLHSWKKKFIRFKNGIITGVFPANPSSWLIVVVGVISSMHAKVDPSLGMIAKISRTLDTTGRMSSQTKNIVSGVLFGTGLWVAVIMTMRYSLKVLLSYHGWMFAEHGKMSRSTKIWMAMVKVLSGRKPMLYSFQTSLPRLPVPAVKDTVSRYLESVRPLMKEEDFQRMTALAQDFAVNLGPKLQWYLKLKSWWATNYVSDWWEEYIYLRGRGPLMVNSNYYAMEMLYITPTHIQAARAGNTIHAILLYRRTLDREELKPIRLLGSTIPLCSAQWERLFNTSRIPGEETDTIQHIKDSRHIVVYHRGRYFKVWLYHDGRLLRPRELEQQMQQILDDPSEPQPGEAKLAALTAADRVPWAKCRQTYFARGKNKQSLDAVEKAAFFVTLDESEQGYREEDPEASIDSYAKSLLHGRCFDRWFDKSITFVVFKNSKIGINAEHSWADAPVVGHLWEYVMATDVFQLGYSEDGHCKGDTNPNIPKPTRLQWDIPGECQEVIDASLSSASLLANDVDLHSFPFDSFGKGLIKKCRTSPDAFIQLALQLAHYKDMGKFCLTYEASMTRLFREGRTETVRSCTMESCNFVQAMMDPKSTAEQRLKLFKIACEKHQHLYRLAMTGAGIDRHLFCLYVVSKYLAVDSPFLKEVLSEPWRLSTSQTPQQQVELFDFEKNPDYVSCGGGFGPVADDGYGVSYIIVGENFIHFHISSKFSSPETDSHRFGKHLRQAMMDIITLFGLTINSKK

[6] = target: T4, Carnitine O-palmitoyltransferase 1, liver isoform (Homo sapiens, UniProt P50416); assay: as §2
T4 sequence (P50416 whole entry): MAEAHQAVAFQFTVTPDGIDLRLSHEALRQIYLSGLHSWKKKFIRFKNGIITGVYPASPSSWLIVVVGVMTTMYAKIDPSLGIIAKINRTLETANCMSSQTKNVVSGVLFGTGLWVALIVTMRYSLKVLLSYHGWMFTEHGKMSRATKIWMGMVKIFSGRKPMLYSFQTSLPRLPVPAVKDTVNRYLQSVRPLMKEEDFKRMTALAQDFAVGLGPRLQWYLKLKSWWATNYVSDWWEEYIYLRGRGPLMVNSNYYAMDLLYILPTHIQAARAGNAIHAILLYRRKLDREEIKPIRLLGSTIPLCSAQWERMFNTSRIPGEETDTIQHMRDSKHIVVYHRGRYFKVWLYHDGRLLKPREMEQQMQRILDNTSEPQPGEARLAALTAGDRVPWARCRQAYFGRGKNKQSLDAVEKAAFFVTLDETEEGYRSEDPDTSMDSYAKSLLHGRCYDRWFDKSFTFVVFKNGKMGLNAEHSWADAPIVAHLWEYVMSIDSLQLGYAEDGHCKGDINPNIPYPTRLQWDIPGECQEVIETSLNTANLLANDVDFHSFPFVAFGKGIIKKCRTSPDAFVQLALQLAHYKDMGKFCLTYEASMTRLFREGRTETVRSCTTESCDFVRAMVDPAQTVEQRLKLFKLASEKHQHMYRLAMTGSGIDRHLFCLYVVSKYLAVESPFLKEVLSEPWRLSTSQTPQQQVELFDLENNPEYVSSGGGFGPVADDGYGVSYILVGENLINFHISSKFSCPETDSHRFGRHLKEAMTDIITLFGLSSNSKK

[7] = SUPPLEMENTARY: PAMPA permeability assay; format: physicochemical; details: read-out: Permeability
[8] = target: T5, Carnitine O-palmitoyltransferase 1, muscle isoform (Homo sapiens, UniProt Q92523); assay: SUPPLEMENTARY: Inhibition of Carnitine palmitoyltransferase 1, muscle isoform; set-up: species or system Muscle tissue
T5 sequence (Q92523 whole entry): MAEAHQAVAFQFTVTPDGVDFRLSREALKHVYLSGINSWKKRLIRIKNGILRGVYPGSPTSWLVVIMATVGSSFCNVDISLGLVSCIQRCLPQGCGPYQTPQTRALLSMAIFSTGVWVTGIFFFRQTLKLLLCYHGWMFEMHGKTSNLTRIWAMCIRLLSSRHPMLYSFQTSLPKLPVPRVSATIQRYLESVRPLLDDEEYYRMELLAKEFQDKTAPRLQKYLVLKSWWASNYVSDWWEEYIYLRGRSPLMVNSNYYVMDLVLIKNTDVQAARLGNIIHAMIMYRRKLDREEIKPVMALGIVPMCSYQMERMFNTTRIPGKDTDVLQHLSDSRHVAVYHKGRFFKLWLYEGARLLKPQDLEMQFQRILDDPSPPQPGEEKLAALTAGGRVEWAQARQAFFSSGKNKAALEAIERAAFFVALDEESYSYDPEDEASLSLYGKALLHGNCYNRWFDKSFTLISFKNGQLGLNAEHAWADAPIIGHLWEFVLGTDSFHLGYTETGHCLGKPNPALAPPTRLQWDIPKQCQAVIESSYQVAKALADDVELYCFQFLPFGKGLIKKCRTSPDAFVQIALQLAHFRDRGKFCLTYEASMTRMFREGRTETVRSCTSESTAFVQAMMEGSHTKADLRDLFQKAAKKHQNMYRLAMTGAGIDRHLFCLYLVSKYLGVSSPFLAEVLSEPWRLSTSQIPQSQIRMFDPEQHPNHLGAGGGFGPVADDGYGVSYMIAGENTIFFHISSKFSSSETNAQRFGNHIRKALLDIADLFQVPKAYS

SMILES | logD [1] | pIC50 [2] | pIC50 [3] | solubility kinetic [4] | pIC50 [5] | pIC50 [6] | Papp [7] | pIC50 [8]
Cc1cc(C)cc(S(=O)(=O)N2CCSc3ccc(C(=O)Nc4ccc(C(=O)O)cc4)cc32)c1 | 1.75 | 5.58 | 5.80 | 125 µg/mL (≈ 259 µM) | 7.59 | 7.29 | 1.79 ×10⁻⁶ cm/s | 5.57
NC(=O)c1ccc(C#C[C@H]2CCCCN2C(=O)COc2ccccc2)cc1 | 2.85 | < 4.00 | 4.38 | 18 µg/mL (≈ 49.7 µM) | 6.77 | 7.12 | 2.96 ×10⁻⁶ cm/s | 5.01
CCOC(=O)c1cncc(-c2noc([C@H]3CCCCN3C(=O)COc3ccccc3)n2)c1 | 3.38 | < 4.00 | 4.61 | 9 µg/mL (≈ 20.6 µM) | 6.40 | 7.10 | 1.56 ×10⁻⁶ cm/s | < 4.00
COc1ccc(Cl)cc1S(=O)(=O)N1COc2ccc(C(=O)Nc3ccc(C(=O)O)cc3)cc21 | 0.65 | 5.18 | 5.54 | 13 µg/mL (≈ 26.6 µM) | 7.39 | 7.25 | 2.93 ×10⁻⁶ cm/s | 5.26
O=C(COc1ccccc1)N1CCCC[C@@H]1c1noc(-c2ccc(-n3cnnn3)cc2)n1 | 2.92 | < 4.00 | 4.82 | 8 µg/mL (≈ 18.5 µM) | 7.01 | 7.01 | 1.7 ×10⁻⁶ cm/s | < 4.00
COc1ccc(Cl)cc1S(=O)(=O)N(C)c1cc(C(=O)Nc2ccc(C(=O)O)cc2)cc2c1OCO2 | 0.26 | 4.57 | 4.75 | 13 µg/mL (≈ 25.1 µM) | 6.92 | 6.88 | 2.06 ×10⁻⁶ cm/s | 5.76
O=C(COc1ccccc1)N1CCCC[C@@H]1c1nc(-c2cccs2)n[nH]1 | 2.96 | < 4.00 | 4.53 | 101 µg/mL (≈ 274 µM) | 6.25 | 6.97 | 2.69 ×10⁻⁶ cm/s | < 4.00
